Measurements from patent US20230390303A1, “CANCER TREATMENT BY COMBINATION OF EP4 ANTAGONIST AND IMMUNE CHECKPOINT INHIBITOR” (priority 2020, published 2023).

Key:
Assay type in all cases: in vivo, human
[1] = tested on: pancreatic cancer with distant metastasis; assay: Open-label, uncontrolled study: Compound A, Nivolumab and mFFX therapy or GnP therapy as primary treatment; settings: RECIST Guideline 1.1
Description: This study aims to study the tolerability, safety and efficacy of a combination of Compound A as a primary treatment, Nivolumab and mFFX therapy or GP therapy in pancreatic cancer patients with distant metastases. The trial could evaluate the effect of the combination with Compound A, Nivolumab and mFFX therapy or Gnp therapy.
Pancreatic cancer patients with distant metastases
At the time of registration, patients who had not been treated with systemic antineoplastic agents for pancreatic cancer with distant metastases and who met all pre-determined patient selection criteria determined in view of the patient selection criteria in each trial performed so far for Compound A, Nivolumab and mFFX therapy or GnP therapy were selected.
Compound A was orally administered once a day at a dose of 20 mg or 40 mg per administration, wherein the administration was continued until predetermined criteria for discontinuation of administration related to Compound A was met. Note that when Compound A, Nivolumab and the mFFX therapy or GnP therapy were administered on the same day, Compound A and Nivolumab were administered first, and after Compound A and Nivolumab were administered, followed by starting of the mFFX therapy or GnP therapy. […]

[2] = tested on: curatively resectable locally advanced rectal cancer; assay: Open-label, uncontrolled study: Compound A or Compound A plus Nivolumab as preoperative adjuvant therapy after preoperative chemoradiotherapy; settings: Compound A 40 mg QD oral alone then with Nivolumab 240 mg Q2W IV (cohort 1) or in combination (cohort 2), after preoperative CRT; pCR = AJCC Tumor regression grade 0 (ypT0N0); 10 months after registration of the first patient
Description: The purpose of this study was to examine the efficacy, pharmacokinetics and safety of Compound A administered alone and/or Compound A and Nivolumab administered in combination as a preoperative adjuvant therapy after a preoperative chemoradiotherapy (CRT) for curatively resectable locally advanced rectal cancer. The trial could evaluate the effect of Compound A and/or a combination of Compound A and Nivolumab as a preoperative adjuvant therapy.
Curatively Resectable Locally Advanced Rectal Cancer
As the preoperative CRT, the investigational new drug was administered to a patient who was treated and satisfied the following conditions. • 45 Gy/25 times of irradiation to the pelvic cavity and 5.4 Gy/3 times of boost irradiation to the primary lesion were performed. • the administration of Capecitabine was started at a dose of 1,650 mg/m^2 (825 mg/m^2 twice a day) per day. The starting dose was determined based on Method D of dosage and administration of Xeloda (registered trademark) tablet 300. • The oral administration of Capecitabine was performed in a period corresponding to 75% of 28 times which was the number of times of irradiation of radioactive ray in combination with the irradiation of radioactive ray (for example, in the case of 50.4 Gy/28 times of irradiation, oral administration for 21 days or 42 times or more as oral administration in the morning and evening). […]

[3] = tested on: advanced or recurrent non-small cell lung cancer refractory to a combination therapy including an anti-PD-1 antibody or an anti-PD-L1 antibody, and a platinum …; assay: Open-label, uncontrolled study: Compound A, Nivolumab, Docetaxel and Ramucirumab as secondary therapy; settings: Compound A 20 mg or 40 mg orally once a day + Nivolumab 360 mg IV at 3-week intervals + Docetaxel 60 mg/m^2 and Ramucirumab 10 mg/kg at 3-week intervals; RECIST Guideline 1.1; 8 months after the registration of the first patient
Description: The purpose of this study is to examine the tolerability, safety, and efficacy of a combination of Compound A, Nivolumab, Docetaxel, and Ramucirumab as a secondary therapy in non-small cell lung cancer patients who had progressed or relapsed refractory to a combination therapy including an anti-PD-1 antibody or an anti-PD-L1 antibody and a platinum preparation. This trial can evaluate the effect of combination of Compound A, Nivolumab, Docetaxel, and Ramucirumab.
Patients with stage IV or recurrent non-small cell lung cancer
Compound A was orally administered once a day at a dose of 20 mg or 40 mg per administration, and the administration was continued until the predetermined criteria for discontinuation of administration related to Compound A were met. […]
A principal investigator or a sub-investigator measured a tumor diameter of a target lesion according to RECIST Guideline 1.1 to determine the antitumor effect. […] Imaging diagnosis in the treatment phase was performed at 6-week intervals (±7 days) from Day 1 of the first cycle to Week 54, and thereafter at 12-week intervals (±7 days), and the tumor diameter was measured.
The overall response and the best overall response were diagnostic imaging results evaluated based on the RECIST Guideline 1.1. […]

[4] = tested on: radically unresectable advanced or recurrent colonic/rectal cancer; assay: Open-label, uncontrolled study: Compound A, Nivolumab and XELOX plus Bevacizumab therapy as primary treatment; settings: Compound A 20 mg or 40 mg orally once a day + Nivolumab 360 mg IV at 3-week intervals + XELOX plus Bevacizumab therapy; RECIST Guideline 1.1; 10 months after the first patient was registered
Description: The purpose of this study is to examine the tolerability, safety, and efficacy of a combination of Compound A, Nivolumab, and XELOX plus Bevacizumab therapy as a primary treatment in patients with radically unresectable advanced or recurrent colonic/rectal cancer. This trial can evaluate the effect of the combination of Compound A, Nivolumab, and a XELOX plus Bevacizumab therapy.
Patients with radically unresectable advanced or recurrent colonic/rectal cancer.
At the time of registration, patients were selected, who had not been treated with a systemic antineoplastic agent for radically unresectable advanced or recurrent colonic/rectal cancer and who met all pre-determined patient selection criteria determined in view of the patient selection criteria in each trial performed so far for Compound A, Nivolumab and XELOX plus Bevacizumab therapy. When it became clear from the registration that the criteria were not satisfied before the first administration of the investigational new drug, the administration of the investigational new drug was not started and the study was discontinued. […]
A principal investigator or a sub-investigator measured a tumor diameter of a target lesion according to RECIST Guideline 1.1 to determine the antitumor effect. […]

Compound: CC(C)NC(=O)c1ccc2c(c1)[C@]1(CCO2)C[C@H]1C(=O)Nc1cc(C#N)ccc1CCCC(=O)O [Compound A, 4-[4-cyano-2-({(2′R,4S)-6-[(propane-2-yl)carbamoyl]-2,3-dihydrospiro[1-benzopyran-4,1′-cyclopropane]-2′-carbonyl}amino)phenyl]butanoic acid]
- cases judged to be PR ([1]; Compound A 20 mg or 40 mg orally once a day + Nivolumab 480 mg IV at 4-week intervals + GnP therapy, 9 months after registration of the first patient): two
- case determined to be PR ([1]; Compound A 20 mg or 40 mg orally once a day + Nivolumab 480 mg IV at 4-week intervals + mFFX therapy, 9 months after the registration of the first patient): one
- cases determined to be pCR [2]: 3 cases
- case determined to be PR [3]: one
- cases determined to be PR [4]: 2 cases
